Data from patent publication US10294230B2, “3,3-difluoropiperidine carbamate heterocyclic compounds as NR2B NMDA receptor antagonists” (Rugen Holdings (Cayman) Limited, priority 2015, dated 2019).

Test system: 6 Hz electrically induced seizures
Assay: 6 Hz Seizure Test
Type: in vivo
Conditions: for forelimb seizure score, change vs vehicle control: mice
Experimental: Mice were administered a rectangular current (44 mA, rectangular pulse: 0.2 ms pulse width, 3 s duration, 6 Hz) via corneal electrodes connected to a constant current shock generator (Ugo Basile: type 7801). The results for the number of seizures as reflected by forelimb clonus were recorded during the first minute following current administration. Forelimb clonus was scored as absent (0), mild (1) and strong (2). 15 mice were studied per group. The test was performed partially blind (test substance vs vehicle). […] Quantitative data (scores) with the test substance was analyzed by comparing treated groups with vehicle control using Kruskall-Wallis test followed by Mann-Whitney U tests.

SMILES: Cc1ccc(COC(=O)N2CC[C@H](CNc3nccn4cnnc34)C(F)(F)C2)cc1 [Compound E1-1.2, (+)-R-4-methylbenzyl 4-(([1,2,4]triazolo[4,3-a]pyrazin-8-ylamino)methyl)-3,3-difluoropiperidine-1-carboxylate]
- number of mice with Straub tail, change vs vehicle control (10 mg/kg p.o., NS): −13%
- number of mice with Straub tail, change vs vehicle control (30 mg/kg p.o.): −40%
- forelimb seizure score, change vs vehicle control (10 mg/kg p.o. 30 minutes before the test): −50%
- forelimb seizure score, change vs vehicle control (30 mg/kg p.o. 30 minutes before the test): −70%
